Data as given in patent publication US20190022039A1, “COMPOUND HAVING ENHANCING ACTIVITY FOR GLUCAGON-LIKE PEPTIDE-1 RECEPTOR ACTIONS” (AJINOMOTO CO., INC., priority 2016, published 2019).

Biological target: T1, human GLP-1R (Homo sapiens, UniProt P43220)
T1 construct: expressed in transfected cells; host or cells: PEAK RAPID-derived Gα15-trans48 LD stably expressing cells (PRG48), transiently transfected with Lipofectamine 2000
Assay: GLP-1 receptor in vitro calcium assay (intracellular free calcium concentration change induced via GLP-1 receptor)
Format: cell-based
Details: for EC50: PRG48 cells transfected with human GLP-1R, compound added with 250 pM GLP-1, Ca2+ response ΔF/F, read-out: Ca EC50 value; for GLP-1 receptor action enhancing activity (vs BETP): intensity compared to BETP, activity of BETP as 1
Method: The supernatant was removed by centrifugation (1,200 rpm, 3 min), and the cells were suspended at 4×10^6 cells/mL in 5% FBS DMEM/Ham's F-12. 1.0 mL thereof was seeded in a 15 cm dish and cultured (37° C., 5% CO2) overnight. The next day, the medium of the cultured PRG48 cells was replaced with 5% FBS DMEM/Ham's F-12 medium (30 mL), human GLP-1R gene mixture solution (GLP-1R/pc.DNA3.1(+) 60 μg) prepared using 6.0 mL of Opti-MEM (invitrogen) and 120 μL of Lipofectamin 2000 (invitrogen) was slowly added to the cells, and cultured (37° C., 5% CO2) for 6 hr to introduce the gene. […] The cells were counted, suspended at 0.5×10^6 cells/mL in 5% FBS DMEM/Ham's F-12 medium, and seeded in each well of D-Lysine coat 96 well plate (BD Bioscience) at 7.0×10^4 cells. After static adhesion at room temperature for 1 hr, the cells were cultured overnight (37° C., 5% CO2). The medium in the Cultured 96 well was entirely discarded, 150 μL of intracellular calcium measurement staining solution Calcium assay kit Express (Molecular Device) diluted 80-fold with Assay buffer (20 mM HEPES, 146 mM NaCl, 1 mM MgSO4, 1.39 mM glucose, 1 mM CaCl2, 2.5 mM Probenecid, 0.05% Casein Enzymatic Hydrolysate) was added, and the mixture was stood at 37° C. for 30 min, and then at room temperature for 45 min to perform staining. After staining, 250 pM GLP-1 and the compound were added and Ca^2+ response was observed by using FDSSμCELL (Hamamatsu Photonics K.K.). Each evaluation compound was dissolved in DMSO, further diluted with Assay buffer and used.
For evaluation, the fluorescence values (Ex480:Em540) before and after addition were measured, and changes in the intracellular free calcium concentration produced via GLP-1R receptor by the addition were quantitatively examined. For the measurement and analysis of the fluorescence values, a soft (FDSS7000EX) attached to the FDSSμCELL was used, and ΔF/F value ((maximum fluorescence value after stimulation−minimum fluorescence value after stimulation)/fluorescence value before stimulation) was calculated. Using the obtained ΔF/F values, EC50 value was calculated by Prism5.

T1 sequence (P43220 24-463): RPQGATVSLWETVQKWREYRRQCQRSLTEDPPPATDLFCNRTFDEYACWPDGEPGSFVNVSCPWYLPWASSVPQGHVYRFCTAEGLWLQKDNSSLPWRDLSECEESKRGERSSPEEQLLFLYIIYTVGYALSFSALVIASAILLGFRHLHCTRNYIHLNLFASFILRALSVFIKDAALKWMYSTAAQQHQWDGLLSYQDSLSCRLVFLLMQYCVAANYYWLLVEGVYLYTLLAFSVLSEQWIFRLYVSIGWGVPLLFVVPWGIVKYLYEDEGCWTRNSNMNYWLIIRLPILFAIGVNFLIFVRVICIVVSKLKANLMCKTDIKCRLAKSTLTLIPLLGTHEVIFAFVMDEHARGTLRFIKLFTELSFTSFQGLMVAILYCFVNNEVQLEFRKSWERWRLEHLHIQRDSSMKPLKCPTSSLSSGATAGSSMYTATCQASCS

Row | SMILES | EC50 [nM] | GLP-1 receptor action enhancing activity (vs BETP)
1 | CC[S+]([O-])c1nc(-c2cccc(OCc3ccccc3)c2)cc(C(F)(F)F)n1 (centres unmarked) [BETP, 4-(3-benzyloxyphenyl)-2-ethylsulfinyl-6-(trifluoromethyl)pyrimidine, reference compound] | 25000 | 1
2 | CCCCC(CC)CNC(=O)[C@@H](Cc1ccc(Cl)cc1)NC(=O)Nc1ccc(NS(=O)(=O)c2ccc(C(C)(C)C)cc2)cc1 (stereo partly drawn) [Compound 1, (2R)-2-({4-[(4-tert-butylphenyl)sulfonylamino]phenyl}carbamoylamino)-3-(4-chlorophenyl)-N-(2-ethylhexyl)propanamide] | 4.3 | 
3 | CCCCCCNC(=O)[C@@H](Cc1ccccc1)NC(=O)Nc1ccc(NS(=O)(=O)c2ccc(C)cc2)cc1 [Compound 2] | 680 | 37
4 | Cc1ccc(S(=O)(=O)Nc2ccc(NC(=O)N[C@H](Cc3ccccc3)C(=O)NC3CCCCC3)cc2)cc1 [Compound 3] | 1700 | 15
5 | Cc1ccc(S(=O)(=O)Nc2ccc(NC(=O)N[C@H](Cc3ccccc3)C(=O)NCC(C)(C)C)cc2)cc1 [Compound 4] | 1900 | 13
6 | CCCCCCCCNC(=O)[C@@H](Cc1ccccc1)NC(=O)Nc1ccc(NS(=O)(=O)c2ccc(C)cc2)cc1 [Compound 5] | 51 | 490
7 | CCCCCCCNC(=O)[C@@H](Cc1ccccc1)NC(=O)Nc1ccc(NS(=O)(=O)c2ccc(C)cc2)cc1 [Compound 6] | 130 | 187
8 | Cc1ccc(S(=O)(=O)Nc2ccc(NC(=O)N[C@H](Cc3ccccc3)C(=O)NCC#N)cc2)cc1 [Compound 7] | 50 | 505
9 | Cc1ccc(S(=O)(=O)Nc2ccc(NC(=O)N[C@H](Cc3ccccc3)C(=O)NCC3CCCCC3)cc2)cc1 [Compound 8] | 500 | 50
10 | COC(C)(C)CNC(=O)[C@@H](Cc1ccccc1)NC(=O)Nc1ccc(NS(=O)(=O)c2ccc(C)cc2)cc1 [Compound 9] | 650 | 39
11 | CCC(CC)CNC(=O)[C@@H](Cc1ccccc1)NC(=O)Nc1ccc(NS(=O)(=O)c2ccc(C)cc2)cc1 [Compound 10] | 380 | 67
12 | CCCCCCNC(=O)[C@@H](CC(C)C)NC(=O)Nc1ccc(NS(=O)(=O)c2ccc(C)cc2)cc1 [Compound 11] | 490 | 52
13 | Cc1ccc(S(=O)(=O)Nc2ccc(NC(=O)N[C@H](Cc3ccccc3)C(=O)NCc3cccs3)cc2)cc1 [Compound 12] | 540 | 47
14 | Cc1ccc(S(=O)(=O)Nc2ccc(NC(=O)N[C@H](Cc3ccccc3)C(=O)NCCc3ccccc3)cc2)cc1 [Compound 13] | 1700 | 15
15 | Cc1ccc(S(=O)(=O)Nc2ccc(NC(=O)N[C@H](Cc3ccccc3)C(=O)NCc3ccccc3)cc2)cc1 [Compound 14] | 1800 | 14
16 | Cc1ccc(S(=O)(=O)Nc2ccc(NC(=O)N[C@H](Cc3ccccc3)C(=O)NCC(F)(F)F)cc2)cc1 [Compound 15] | 42 | 599
17 | CCCCCCNC(=O)[C@@H](CCCC)NC(=O)Nc1ccc(NS(=O)(=O)c2ccc(C)cc2)cc1 [Compound 16] | 520 | 49
18 | CCCCCCNC(=O)[C@@H](Cc1ccc(F)cc1)NC(=O)Nc1ccc(NS(=O)(=O)c2ccc(C)cc2)cc1 [Compound 17] | 520 | 48
19 | CCCCCCNC(=O)[C@@H](CC1CCCCC1)NC(=O)Nc1ccc(NS(=O)(=O)c2ccc(C)cc2)cc1 [Compound 18] | 360 | 71
20 | CCCCCCNC(=O)[C@@H](Cc1ccc(Cl)cc1)NC(=O)Nc1ccc(NS(=O)(=O)c2ccc(C)cc2)cc1 [Compound 19] | 160 | 
21 | CCCCCCNC(=O)[C@@H](CCSC)NC(=O)Nc1ccc(NS(=O)(=O)c2ccc(C)cc2)cc1 [Compound 20] | 1500 | 17

Row | SMILES | EC50 [nM] | GLP-1 receptor action enhancing activity (vs BETP)
22 | CCCCCCNC(=O)[C@@H](Cc1c[nH]c2ccccc12)NC(=O)Nc1ccc(NS(=O)(=O)c2ccc(C)cc2)cc1 [Compound 21] | 470 | 53
23 | Cc1ccc(S(=O)(=O)Nc2ccc(NC(=O)N[C@H](Cc3ccccc3)C(=O)NCCC3CCCCC3)cc2)cc1 [Compound 22] | 220 | 116
24 | Cc1ccc(S(=O)(=O)Nc2ccc(NC(=O)N[C@H](Cc3ccccc3)C(=O)NC3CCCCCC3)cc2)cc1 [Compound 23] | 370 | 68
25 | COc1ccc(CNC(=O)[C@@H](Cc2ccccc2)NC(=O)Nc2ccc(NS(=O)(=O)c3ccc(C)cc3)cc2)cc1 [Compound 25] | 1400 | 18
26 | Cc1ccc(S(=O)(=O)Nc2ccc(NC(=O)N[C@H](Cc3ccccc3)C(=O)NCc3ccc(F)cc3)cc2)cc1 [Compound 26] | 1100 | 24
27 | Cc1ccc(S(=O)(=O)Nc2ccc(NC(=O)N[C@H](Cc3ccccc3)C(=O)NCC3CCCC3)cc2)cc1 [Compound 27] | 1100 | 23
28 | Cc1ccc(S(=O)(=O)Nc2ccc(NC(=O)N[C@H](CC(C)C)C(=O)NCCc3cccs3)cc2)cc1 [Compound 28] | 1800 | 14
29 | Cc1ccc(S(=O)(=O)Nc2ccc(NC(=O)N[C@H](CC(C)C)C(=O)NCC3CCCCC3)cc2)cc1 [Compound 29] | 940 | 27
30 | CCC(CC)CNC(=O)[C@@H](CC(C)C)NC(=O)Nc1ccc(NS(=O)(=O)c2ccc(C)cc2)cc1 [Compound 30] | 1200 | 21
31 | Cc1ccc(S(=O)(=O)Nc2ccc(NC(=O)N[C@H](Cc3ccccc3)C(=O)N[C@@H](C)c3ccccc3)cc2)cc1 [Compound 31] | 480 | 52
32 | Cc1ccc(S(=O)(=O)Nc2ccc(NC(=O)N[C@H](Cc3ccccc3)C(=O)NCc3ccc(C)o3)cc2)cc1 [Compound 32] | 820 | 31
33 | CCCC[C@@H](NC(=O)[C@@H](Cc1ccccc1)NC(=O)Nc1ccc(NS(=O)(=O)c2ccc(C)cc2)cc1)C(=O)OC [Compound 33] | 1500 | 17
34 | CCCCC(CC)CNC(=O)[C@@H](Cc1ccccc1)NC(=O)Nc1ccc(NS(=O)(=O)c2ccc(C)cc2)cc1 (some centres unmarked) [Compound 34] | 64 | 391
35 | CCCCCNC(=O)[C@@H](Cc1ccccc1)NC(=O)Nc1ccc(NS(=O)(=O)c2ccc(C)cc2)cc1 [Compound 35] | 660 | 38
36 | CCCCC(CC)CNC(=O)[C@@H](Cc1ccccc1)NC(=O)Nc1ccc(NS(=O)(=O)c2ccc(C(C)(C)C)cc2)cc1 (some centres unmarked) [Compound 36] | 18 | 1425
37 | CCCCC(CC)CNC(=O)[C@@H](CC(C)C)NC(=O)Nc1ccc(NS(=O)(=O)c2ccc(C)cc2)cc1 (some centres unmarked) [Compound 37] | 180 | 140
38 | CCCCC(CC)CNC(=O)[C@@H](Cc1ccc(Cl)cc1)NC(=O)Nc1ccc(NS(=O)(=O)c2ccc(C)cc2)cc1 (some centres unmarked) [Compound 39] | 23 | 
39 | CCCCC(CC)CNC(=O)[C@@H](Cc1c[nH]c2ccccc12)NC(=O)Nc1ccc(NS(=O)(=O)c2ccc(C)cc2)cc1 (some centres unmarked) [Compound 40] | 130 | 199
40 | Cc1ccc(S(=O)(=O)Nc2ccc(NC(=O)N[C@H](CC3CCCCC3)C(=O)NC3CCCCCC3)cc2)cc1 [Compound 41] | 76 | 333
41 | Cc1ccc(S(=O)(=O)Nc2ccc(NC(=O)N[C@H](Cc3ccc(Cl)cc3)C(=O)NC3CCCCCC3)cc2)cc1 [Compound 42] | 92 | 
42 | Cc1ccc(S(=O)(=O)Nc2ccc(NC(=O)N[C@H](Cc3c[nH]c4ccccc34)C(=O)NC3CCCCCC3)cc2)cc1 [Compound 43] | 160 | 160
